According to PubChem BioAssay AID179 (DTP/NCI, 2004):
Where “and” joins values, the source holds several entries; their conditions need not be identical. Equal entries are not always repeated. Calls of active or inactive are those of the source.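 Rule for the calls: active = compounds giving half or more protection of infected cells from virus-caused growth loss, again on retest; inactive = the rest.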

Tested on: CEM cells HIV-1 protection, formazan growth assay
Test: NCI AIDS Antiviral Assay
Settings: for IC50: measured here: growth of uninfected CEM cells
Summary of the method: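 Screen of anti-HIV-1 activity in human CEM cells using a formazan-based growth measurement at five drug concentrations. Hits with 50% or greater protection were repeated, and confirmation required reproducible complete protection.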

SMILES | outcome | EC50 [µM] | IC50
O=C(O)c1cc(=O)c2[nH]c3ccccc3c2s1 | inactive | – | –
Cn1c(=O)c2c(nc3[nH]c(=O)c(Br)cn32)n(C)c1=O | – | > 100 | 20.4 µM
O=c1[nH]c(=O)c2c([nH]1)[nH]c1ccccc12 | – | > 200 | > 200 µM
COc1c2c(cc3ccc(=O)oc13)CCO2 | – | > 204 | > 204 µM
Nc1c(Br)cc2snc3c2c1C(=O)c1ccccc1-3 | – | > 15.8 | 8.51 µM
Cc1cc(NC[C@H](O)[C@H](O)[C@H](O)CO)c(Sc2cc(=O)[nH]c(=O)[nH]2)cc1C | inactive | – | –
CCCCCCCCCCCCC1N=C(N)N2CCCC2=C1C(=O)OC (stereo not given) | – | > 200 | 4.9 µM
NC(=O)c1cccc(OCC(O)CO)c1 (stereo not given) | – | > 200 | > 200 µM
CCCCCCCCSc1ncnc2[nH]ncc12 | – | > 79.4 | 8.51 µM
COC(=O)c1ccc(C)cc1C1CN=NC12Cc1cc(C)ccc1C2=O (stereo not given) | – | > 200 | 9.77 µM
CC1(C)C2CCC1C(SC(=N)N)C2 (stereo not given) | – | > 200 | 43.7 µM
CCOC(=O)c1c(O)cc(=O)[nH]c1N1CCOCC1 | – | > 200 | > 200 µM
Cc1ccc(C2(C)CCC(C(C)(C)O)OO2)cc1 (stereo not given) | inactive | – | –
Clc1ccc(-c2c3nc(c(-c4ccc(Cl)cc4)c4ccc([nH]4)c(-c4ccc(Cl)cc4)c4nc(c(-c5ccc(Cl)cc5)c5ccc2[nH]5)C=C4)C=C3)cc1 | – | > 200 | > 200 µM
CS(=O)(=O)OCC1OC2OC3(CCCCC3)OC2C1OCc1ccccc1 (stereo not given) | – | > 200 | 105 µM
C/C(=N/Nc1ccc([N+](=O)[O-])cc1[N+](=O)[O-])C(CC(C(=O)Nc1ccccc1C)/C(C)=N\Nc1ccc([N+](=O)[O-])cc1[N+](=O)[O-])C(=O)Nc1ccccc1C (stereo not given) | – | > 9.55 | > 9.55 µM
CCCc1c(O)c2ccccc2[nH]c1=O | – | > 200 | > 200 µM
CC(Oc1ccccc1)C(=O)NNC(=O)OC(C)(C)C (stereo not given) | – | > 200 | > 200 µM
Nc1c(N2CCCCC2)c(=O)nc2[nH]/c(=C\c3ccccc3)c(=O)n12 | – | > 200 | 95.5 µM
CN(C)c1ccc(/C=C2\CCOC2=O)cc1 | – | > 17.4 | > 17.4 µM
O=C1/C(=C/c2ccc(Cl)cc2)NC(=S)N1CN1CCCCC1 | – | > 200 | 28.2 µM
Nc1ccn(CCNCCn2cnc3nc(N)[nH]c(=O)c32)c(=O)n1 | – | > 8.32 | > 8.32 µM
O=S1(=O)OC(c2ccc(O)c(Cl)c2)(c2ccc(O)c(Cl)c2)c2ccccc21 | inactive | – | –

SMILES | outcome | EC50 [µM] | IC50
c1ccc(CN2CCCCC(Sc3ccccc3)CC2)cc1 (stereo not given) | – | > 43.7 | 34.7 µM
COC(=O)CC1CCC(c2ccn(S(=O)(=O)c3ccccc3)c2)=NO1 (stereo not given) | – | > 200 | > 200 µM
O=C1c2ccccc2C2(c3ccc(Cl)cc3)N[C@H]3CCCC[C@@H]3N12 (stereo not given in full) | – | > 200 | 141 µM
O=C1[C@H]2ON(c3ccccc3)C(c3ccccc3F)[C@H]2C(=O)N1c1ccc(Cc2ccc(N3C(=O)[C@@H]4ON(c5ccccc5)C(c5ccccc5F)[C@@H]4C3=O)cc2)cc1 (stereo not given in full) | – | > 9.12 | > 9.12 µM
Cc1ccc(S(=O)(=O)N2CCCN(S(=O)(=O)c3ccc(C)cc3)CC2)cc1 | – | > 45.7 | > 45.7 µM
COc1ccc(C2(C3c4cc(OC)c(OC)cc4CCN3C)SCCCS2)cc1O (stereo not given) | – | > 200 | 151 µM
Cc1oc(-c2cccc(F)c2)nc1C(N)=O | – | > 200 | > 200 µM
O=Cc1cn(CCCCCCCCn2cc(C=O)c3ccccc32)c2ccccc12 | – | > 200 | > 200 µM
N#Cc1c(-c2ccccc2)c(C#N)c(=S)n(C2OC(CO)C(O)C(O)C2O)c1N (stereo not given) | – | > 200 | 83.2 µM and 64.6 µM
O=C(N/N=C\c1ccc([N+](=O)[O-])s1)c1ccncc1 | – | > 200 | 8.71 µM
Nc1ccn(C2CC(F)C(CO)S2)c(=O)n1 (stereo not given) | – | > 25.1 | > 25.1 µM
COC1(OC)CC(CO)(CNc2nc(N)nc(Cl)c2/C=N\O)C1 | – | > 200 | 2.69 µM
NS(=O)(=O)c1nnc(NS(=O)(=O)c2ccc(Cl)cc2)s1 | – | > 200 | > 200 µM
O=C(Cc1csc(N=Nc2c(O)[nH]c3ccccc23)n1)Nc1ccccc1 | – | > 200 | 112 µM
CC(=O)NS(=O)(=O)c1ccc(NCc2cccc3c(=O)c4ccc(Cl)cc4oc23)cc1 | – | > 200 | 3.16 µM
O=C1CNc2cc(N3CCOCC3)ccc2N1 | – | > 200 | 28.2 µM
CC(C)c1cc[n+](/C(C(=S)Nc2cccc(Cl)c2)=C(/[O-])c2ccc([N+](=O)[O-])cc2)cc1 | – | > 200 | 69.2 µM
O=C(CNC(=O)c1ccc(Cl)cc1)NO | – | > 200 | > 200 µM
CC(C)c1ccc(/C=C2\CSCC3=C2N=C2SCC(=O)N2C3c2ccc(C(C)C)cc2)cc1 (stereo not given) | – | > 200 | 107 µM
COC(=O)CCC(=O)Nc1ccc(Cl)cc1C | inactive | – | –
Cc1no[n+]([O-])c1/C=N/NS(=O)(=O)c1ccccc1 | – | > 891 | 407 µM
[Cl][Pd][Cl].[NH-]CCN1CC1 | – | > 200 | 12.3 µM
CN1BN(C)BN(C)B1 | – | > 2040 | > 2040 µM

SMILES | outcome | EC50 [µM] | IC50
CC(CCC=C(c1cc(Cl)c(O)c(C(=O)O)c1)c1cc(Cl)c(O)c(C(=O)O)c1)C1CCC2[C@@H]3CC[C@@H]4CC(F)(F)CC[C@]4(C)C3CC[C@]12C (stereo not given in full) | – | > 170 | 38 µM
O=C(O)c1cc2sc(C(=O)O)cc2s1 | inactive | – | –
CC1(C)OC(=O)CC12CCN(Cc1ccccc1)CC2 | – | > 200 | 195 µM
CC(=O)OCc1ccc2c(c1)C(O)NC(=O)O2 (stereo not given) | – | > 200 | 105 µM
O=S(Cl)C(Cl)=C(Cl)Cl (stereo not given) | – | > 200 | 40.7 µM
CC(=O)Nc1cc2cc(N=CN(C)C)ccc2oc1=O | – | > 263 | 148 µM
CC(C)N(Cc1ccccc1)S(=O)(=O)c1n[nH]c(C(C)(C)C)n1 | – | > 200 | > 200 µM
Cc1cccc(N(C(=O)Nc2ccc(Cl)c(Cl)c2)C2=NCC(C)S2)c1 (stereo not given) | – | > 200 | > 200 µM
C[Si](C)(/C(=C/COCc1ccccc1)CCOC1CCCCO1)c1ccccc1 (stereo not given) | – | > 9.12 | > 9.12 µM
CC(=O)Nc1ccc(S(=O)(=O)[N-]C2C(=O)c3ccccc3C(=O)C2[n+]2ccccc2)cc1 (stereo not given) | – | > 200 | 37.2 µM
O=C(NCCCl)SCCO | – | > 1350 | > 1350 µM
COC(=O)c1cccc2cccc(C(=O)Nc3ccc(Cl)cc3)c12 | – | > 11.2 | > 11.2 µM
CCOC(=O)CSC(=O)NCCCl | – | > 1100 | 537 µM
O=C1/C(=C/c2ccc(Cl)c(Cl)c2)CCC/C1=C\c1ccc(Cl)c(Cl)c1 | – | > 50.1 | 2.95 µM
O=[N+]([O-])c1ccc(N2N=C(c3ccc(NCc4nc5ccccc5[nH]4)cc3)CC2c2ccco2)cc1 (stereo not given) | – | > 15.1 | > 15.1 µM
CC1(O)C[C@]23CC[C@H]4[C@@H](CC=C5C[C@@H](O)CC[C@@]54C)[C@@H]2CC[C@H]13 (stereo not given in full) | – | > 200 | > 200 µM
CC1Oc2c3c(cc(O)c2C(=O)[C@@H]1C)OC(C)(C)CC3 (stereo not given in full) | – | > 200 | 50.1 µM
CC1(C)Nc2cc3c(cc2-n2cccc21)oc1ccccc13 | – | > 200 | 9.12 µM
CC1(C)OC2OC(CO)C(N)C2O1 (stereo not given) | inactive | – | –
CC1(C)COC(c2cccc(C3=NC(C)(C)CO3)c2Br)=N1 | – | > 200 | 151 µM
C/C(CC(=O)Nc1cccc(Cl)c1C)=N\NC(N)=S | – | > 120 | > 120 µM
Cc1cc2c(C)nn(Cc3ccccc3)c2c(C(=O)O)c1C | – | > 123 | > 123 µM
CCOC(=O)C1CCc2c1c(C#N)c1[nH]c3ccccc3n1c2=O (stereo not given) | – | > 234 | > 234 µM

SMILES | outcome | EC50 [µM] | IC50
CCCCc1c2c(nc3c1CCc1cc4c(nc1-3)-c1nc3c(c(CCCC)c1CC4)CCC/C3=C\c1ccccc1)/C(=C/c1ccccc1)CCC2 | – | > 5.5 | > 5.5 µM
CC1(C)OC(C(C)(C)O)C(C(C)(C)O)O1 (stereo not given) | – | > 200 | > 200 µM
CCCCC(CCCCCC(CCCC)C1NC(C)Cc2cc(OC)c(OC)cc21)C1NC(C)Cc2cc(OC)c(OC)cc21 (stereo not given) | – | > 200 | 0.447 µM
Cc1ccc(NC(=S)/N=C/c2c(O)[nH]c(=O)[nH]c2=O)c(C)c1 | – | > 200 | 151 µM
Fc1cccc(C2ON=C(c3ccccc3)N2C23CC4CC(CC(C4)C2)C3)c1 (stereo not given) | – | > 200 | > 200 µM
CC(C)CC(F)(C(N)=O)C(N)=O | – | > 200 | > 200 µM
Nc1ccc(Oc2ccc(S(=O)(=O)c3ccc(Oc4ccc(N)cc4N)cc3)cc2)c(N)c1 | – | > 200 | 120 µM
C/C(CC(=O)Nc1ccccc1C)=N/NS(=O)(=O)c1ccc(C)cc1 | – | > 363 | > 363 µM
COc1ccc(NC(=O)CC(=O)N2N=C(N(c3ccccc3)c3ccccc3)CC2c2ccccc2)cc1 (stereo not given) | inactive | – | –
CCN(CC)CC(C)C(O)(c1ccc(Cl)cc1)C1CCCCC1 (stereo not given) | – | > 200 | 13.2 µM
Cc1cc(Br)c(O)c(-c2cscn2)c1 | – | > 200 | 11.2 µM
O=[N+]([O-])c1cc2n[nH]nc2c2nonc12 | – | > 200 | 4.79 µM
NC1=NC(=O)/C(=C/c2ccccc2[N+](=O)[O-])C(N)=N1 | inactive | – | –
O=C(CC(=O)c1ccccc1)C(=O)NC12CC3CC(CC(C3)C1)C2 | – | > 11.5 | > 11.5 µM
[N-]=[N+]=CC(=O)OCCCCl | – | > 200 | > 200 µM
CCN1OC(C)(C)C2CCC(C)CC21 (stereo not given) | – | > 1260 | > 1260 µM
Cc1c(N=O)c(=O)n(-c2ccccc2)n1C | inactive | – | –
COc1ccccc1NC(=O)CC(=O)N/N=C/c1ccc(N(CCC#N)S(=O)(=O)c2ccccc2)cc1 | – | > 182 | > 182 µM
COc1cc(O)c2c(=O)c3c(C)cccc3n(C)c2c1 | – | > 200 | 72.4 µM
O=C(C[n+]1ccc2ccccc2c1)c1ccc(O)c(O)c1 | inactive | – | –
CCOC(=O)C(=O)Nc1nc2c(OCC)cccc2s1 | inactive | – | –
CCOC(=O)COc1ccc(/C=C/C(=O)c2ccc(OC)cc2)cc1 | – | > 200 | 11.2 µM
